Experimental findings from PubChem BioAssay (NCI) are described below.

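These data come from cells grown in 96-well plates and exposed to compound for 48 hours at five concentrations. GI50 marks 50% less growth. TGI denotes the concentration required for complete inhibition of growth.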 Bounds are passed on as bounds.

Test systems include IGROV1 ovarian; T-47D breast; HCT-116 colon; HT29 colon; HS 578T breast; OVCAR-8 ovarian; UO-31 renal; SW-620 colon; PC-3 prostate; HCT-15 colon.
Common to all, as to test: NCI-60 cell line screen, 48 h

As for `CCOC(=O)Nc1nc2ccc(OC)cc2s1`, the GI50 in the assay with IGROV1 ovarian, with T-47D breast, in the assay with HCT-116 colon, in the assay with HT29 colon, in the assay with HS 578T breast and in the assay with OVCAR-8 ovarian was more than 100 µM each time. Moreover, the GI50 with UO-31 renal, in the assay on SW-620 colon, in the assay on PC-3 prostate and in the assay on HCT-15 colon was more than 100 µM throughout. Further, the TGI with IGROV1 ovarian, in the assay with T-47D breast, in the assay with HCT-116 colon, in the assay on HT29 colon, in the assay with HS 578T breast and in the assay with OVCAR-8 ovarian was more than 100 µM each time. In addition, the TGI with UO-31 renal, with SW-620 colon, in the assay with PC-3 prostate and with HCT-15 colon was more than 100 µM each time.
For the molecule `CC(=O)Oc1ccc(C23c4ccccc4C2(OC(C)=O)c2cc(OC(C)=O)ccc23)cc1` (stereo not given), the GI50 was 5.86 µM in the assay with IGROV1 ovarian; 2.22 µM in the assay on T-47D breast; 3.56 µM in the assay on HCT-116 colon; 39.7 µM in the assay on HT29 colon; 2.93 µM in the assay on HS 578T breast; 4.28 µM in the assay on OVCAR-8 ovarian. Also, the GI50 is 1.85 µM with UO-31 renal, 3.73 µM with SW-620 colon, 3 µM in the assay with PC-3 prostate and 3.81 µM in the assay on HCT-15 colon. Moreover, the TGI in the assay on IGROV1 ovarian is 27.2 µM; in the assay with T-47D breast, 7.45 µM; in the assay on HCT-116 colon, 12.7 µM; in the assay with HT29 colon it was more than 100 µM; in the assay with HS 578T breast, more than 100 µM; in the assay with OVCAR-8 ovarian it was 49.5 µM. Also, the TGI with UO-31 renal was determined as 5.02 µM; in the assay with SW-620 colon, 12.7 µM; in the assay with PC-3 prostate it was 11.9 µM; with HCT-15 colon it was 17.7 µM.
Regarding `Nc1nonc1-c1nc2cnccc2n1C1CC1`, the GI50 is 8.76 µM in the assay with IGROV1 ovarian; 5.7 µM with T-47D breast; 5.62 µM in the assay on HCT-116 colon; 5.87 µM in the assay on HT29 colon; 1.16 µM in the assay with HS 578T breast; 6.83 µM in the assay on OVCAR-8 ovarian. The GI50 is 2.09 µM in the assay on UO-31 renal, 5.42 µM with SW-620 colon, 17.7 µM in the assay with PC-3 prostate and 6.61 µM in the assay on HCT-15 colon. For the same molecule, the TGI in the assay on IGROV1 ovarian was more than 25 µM; in the assay on T-47D breast it was more than 22.3 µM; with HCT-116 colon, more than 25 µM; in the assay with HT29 colon, more than 25 µM; in the assay with HS 578T breast, 9.54 µM; in the assay on OVCAR-8 ovarian, more than 25 µM. Besides, the TGI in the assay on UO-31 renal, in the assay with SW-620 colon, with PC-3 prostate and in the assay on HCT-15 colon was more than 25 µM throughout.
